The text below walks through data of PMC10454396 (International Journal of Molecular Sciences, 2023).

The format of data set [1] is in vitro ADME. To be noted: mouse plasma. Here is the method: (§1) To determine stability in plasma, a similar setup as for the determination of metabolic stability was applied using pooled mouse, human or rat plasma (Neo Biotech, Nanterre, France). Samples were taken by mixing aliquots with four volumes of ice cold acetonitrile containing internal standard (12.5 nM diphenhydramine). The plasma stability of procain, propantheline and diltiazem were determined in parallel to confirm the enzymatic activity.

Data set [2] is described as follows: Phase I metabolic stability, rat liver microsomes. It is filed as in vitro ADME. The following applies: pooled liver microsomes, pH 7.4. Here is the method:
(§2) For the evaluation of phase I metabolic stability, the compound (1 µM) was incubated with 0.5 mg/mL pooled mouse/rat liver microsomes (Xenotech, Kansas City, MO, USA) or human liver microsomes (Corning, NY, USA), 2 mM NADPH and 10 mM MgCl2 at pH 7.4 for 120 min at 37 °C. The metabolic stability of testosterone, verapamil and ketoconazole were determined in parallel to confirm the enzymatic activity of mouse/rat liver microsomes; for human liver microsomes testosterone, diclofenac and propranolol were used. The incubation was stopped after defined time points by precipitation of aliquots of the assay mixture with two volumes of ice-cold acetonitrile containing internal standard (15 nM diphenhydramine). Samples were stored on ice until the end of the incubation and precipitated protein was removed by centrifugation (15 min, 4 °C, 4000× g).
A general note: Liver microsomes are a subcellular fraction often used to study metabolism.

The subject of data set [3] is zebrafish embryos. Nature of the data set: Toxicity of antimicrobials on zebrafish embryos. It is filed as in vivo, Danio rerio. Here is the method: Toxicity of antibiotics was assessed by aquatic exposure and microinjection. For evaluation of the maximum tolerated concentration (MTC) by aquatic exposure, embryos were dechorionated at 30 hpf and placed in a flat-bottom 96-well plate (Sarstedt) with one embryo per well. Excess medium was removed and 150 µL of compound dilutions (in 0.3× Danieau’s, maximum of 1% DMSO) were added. For each antibiotic, a range of concentrations was investigated. Ten embryos were used per concentration and ten additional embryos incubated in fish medium without any antibiotic served as negative control. Microinjection of antibiotics into the caudal vein (CV) and the yolk sac was performed as described earlier. PBS-injected embryos served as negative control. Exposed embryos were maintained at 28 °C throughout the whole experiment. Embryos were monitored daily under a stereo microscope (Stemi 508, Zeiss) in order to record survival as well as anomalies, pigmentation, heartbeat and locomotor responses. An embryo was considered dead when no heart beat could be observed.

Data set [4] in a line: Plasma protein binding (RED), mouse plasma. It counts as in vitro ADME. The following applies: CD-1, mouse, pooled plasma, pH 7.4, mouse plasma. Here is the method: (§3) Plasma protein binding was determined using the Rapid Equilibrium Dialysis (RED) system (Thermo Fisher Scientific, Waltham, MA, USA). The compound was diluted in pooled murine (CD-1)/human or Wistar rat plasma (Neo Biotech, Nanterre, France) to 10 µM and added to the respective chamber according to the manufacturer’s protocol, followed by addition of PBS pH 7.4 to the opposite chamber. Samples were taken immediately after addition to the plate as well as after 2, 4 and 5 h by mixing 10 µL with 80 µL ice-cold acetonitrile containing 12.5 nM diphenhydramine as internal standard, followed by addition of 10 µL plasma to samples taken from PBS and vice versa. Samples were stored on ice until the end of the incubation and precipitated protein was removed by centrifugation (15 min, 4 °C, 4000× g, 2 centrifugation steps). Concentration of the remaining test compound at the different time points was analyzed by HPLC-MS/MS (TSQ Altis Plus, Thermo Fisher, Dreieich, Germany). The amount of compound bound to protein was calculated using the equation PPB [%] = 100 − 100 × (amount in buffer chamber/amount in plasma chamber).

Data set [5] can be described thus: Plasma protein binding (RED), human plasma. It counts as in vitro ADME. The following applies: pooled plasma, pH 7.4, human plasma. Here is the method: as §3
For data set [6], the system named is Staphylococcus aureus Newman WT. The data set is described as follows: MIC, broth microdilution, S. aureus Newman wild type. It is filed as cell-based. The following applies: Staphylococcus aureus, NEWMAN. Here is the method:
(§4) Cefazolin was obtained from Acros Organics. Ciprofloxacin hydrochloride, linezolid and vancomycin hydrochloride were obtained from Sigma-Aldrich (St. Louis, MO, USA). Tetracycline hydrochloride was obtained from Alfa Aesar. Sorangicin A was provided by HZI, Braunschweig. Stock solutions were prepared in Milli-Q water or dimethyl sulfoxide (DMSO, Sigma-Aldrich). Minimum inhibitory concentrations (MICs) were determined in cation-adjusted Mueller-Hinton broth (MHB2) using the broth microdilution method as recommended by the Clinical and Laboratory Standards Institute (CLSI). The MIC was defined as the lowest concentration of the antibiotic causing complete inhibition of visible growth of the microorganism (CLSI, 2017).
(§5) 1. In vitro characterization of mCherry expressing Staphylococcus aureus Newman
(§6) 1.1 Minimum inhibitory concentration
(§7) Table S1. Antibiotic susceptibility profile of Staphylococcus aureus Newman. WT: wild type. […]
For orientation: In broth dilution the organism is exposed to a series of concentrations in liquid medium.

The test system of data set [7] is Staphylococcus aureus Newman mCherry. Nature of the data set: MIC, broth microdilution, mCherry-expressing S. aureus Newman. It is filed as cell-based. To be noted: Staphylococcus aureus, NEWMAN. The procedure:
as §4, §5, §6, §7

Data set [8] is described as follows: in vitro. To be noted: read-out: Plasma Stability t1/2. It is filed as in vitro ADME. The procedure:
as §1

Data set [9] is described as follows: Phase I metabolic stability, mouse liver microsomes. The following applies: pooled liver microsomes, pH 7.4. It counts as in vitro ADME. The procedure:
as §2

Data set [10] is described as follows: Plasma protein binding (RED), rat plasma. It is filed as in vitro ADME. The following applies: Wistar, pooled plasma, pH 7.4, rat plasma. The procedure:
as §3

In data set [11] the test system is S. aureus. The arrangement: method as in unpublished data from GBF. The following applies: former in vivo efficacy studies; ref unpublished data from GBF; cited from earlier work.
Setting [12] is: 10 µM, read-out: PPB (converted).

≈ marks a conversion by molar mass, not a printed value. Bounds are passed on as bounds.

Usually microsomal CLint stands for the capacity of the preparation to metabolise the compound, expressed as a volume cleared per time. High values mean rapid turnover, low ones slow turnover. Broadly, the MIC is the lowest concentration that inhibits growth of the organism. A high value points to a less susceptible organism. Regarding `C/C(=C\[C@H](C)CCCCC(=O)O)[C@@H]1O[C@@H]2C=C[C@H]1OC(=O)\C=C/C=C\C=C\[C@H]1O[C@@H]3C[C@H]1O[C@@H](/C=C/C[C@H]1O[C@H](C[C@H](O)[C@H]1C)[C@@H](O)[C@@H](O)/C=C/CC/C=C/C2)[C@@H]3C` [sorangicin A], in [1], the “plasma concentration after 4 h incubation” value is recorded as “below the limit of detection”. The figures for the microsomal CLint at 1 µM in [2] and in data set [9] were 239 ± 155 µL/min/mg and 557 ± 297 µL/min/mg, respectively. In addition, the “reduction in embryo survival with respect to control (1% DMSO)” value in [3] (long-term aquatic exposure, 200 µg/mL) is on record as 10%. The “tolerability of injection dose” value in data set [3] (microinjection 30 mg/kg) was “well-tolerated”. For the same compound, the well-tolerated concentration entry in [3] (short- and long-term aquatic exposure) is “up to 100 µg/mL”. The fraction unbound at 10 µM was 0.121 in [4] (setting [12]); more than 0.1 in data set [4] (read-out: free fraction); 0.13 in [5] (setting [12]); more than 0.1 in [5] (read-out: free fraction); 0.112 in [10] (setting [12]); more than 0.1 in data set [10] (read-out: free fraction). The MIC in [6] and in [7] was 0.0625 mg/L (≈ 0.0774 µM) throughout. The half-life in [8] (human plasma) is more than 4 h. Moreover, in data set [8] (rat plasma), the half-life at 1 µM was more than 4 h. In data set [11], the “protective effect in mouse models of S. aureus infection” value is “failed to show a protective effect”.
